Laboratory results as given in patent US12583826B2, “[(1,5-diphenyl-1H-1,2,4-triazol-3-yl)oxy]acetic acid derivatives and salts thereof, crop protection compositions comprising them, methods for producing them and use thereof as safeners” (Bayer Aktiengesellschaft, priority 2019, dated 2026).

Tests used:
Type in all cases: in vivo
[1] = tested on: summer wheat (TRZAS; cv. Triso); test: Relative action (efficacy code): reduction of damage by mesosulfuron-methyl on summer wheat; set-up: key: 0: no reduction in damage (appearance corresponding to the herbicide control); 1: slight reduction in damage; 2: distinct reduction in damage; 3: significant reduction in damage; 4: complete reduction in damage (appearance corresponding to the untreated control); conditions: then mesosulfuron-methyl 40-60 g/ha, visual, 9-13 days after application
Procedure: 2.3 Relative Action of Selected Compounds of the Invention Using the Example of Reduction of Damage by Mesosulfuron-Methyl on Summer Wheat (TRZAS) The seeds of the crop plants to be treated are laid out in sandy loam in plastic pots (diameter ˜4 cm), covered with soil and grown in a greenhouse under good conditions for germination and growth. The trial plants were treated at the early leaf stage (BBCH10—BBCH12). In the course of this, the inventive compounds of the general formula (I) formulated in the form of wettable powders (WP) were sprayed onto the above-ground parts of the plants as an aqueous suspension with a water application rate corresponding to 800 l/ha with addition of wetting agent (e.g. 0.2% Genapol-LRO or 0.2% Mero) in the specified dose. This was followed by the application of the herbicide. For this purpose, mesosulfuron-methyl, formulated in the form of water-dispersible granules (WG), was sprayed onto the above-ground parts of the plants in the form of an aqueous dispersion with a water application rate corresponding to 800 l/ha with addition of wetting agent (e.g. 0.2% Genapol-LRO or 1 l/ha Biopower) in a dose of 40-60 g/ha. The dose of the herbicide was chosen here such that it causes visually apparent damage (min. 30%, max. 75%) compared to untreated crop plants at the evaluation time on a control group of crop plants without safener treatment that were included in the same trial. After application, the plants were cultivated under good growth conditions in a greenhouse. 9-13 days after application, the efficacy of the test compounds was assessed visually. For this purpose, the appearance of the plants treated with the test compound and herbicide was compared to the corresponding herbicide controls (without safener; with clearly visible damage) and the untreated controls (without damage). The damage-reducing effect of the test compounds was expressed here in graded efficacy codes according to the following scheme: • 0: no reduction in damage (appearance corresponding to the herbicide control) • 1: slight reduction in damage • 2: distinct reduction in damage • 3: significant reduction in damage • 4: complete reduction in damage (appearance corresponding to the untreated control) The trials show clear efficacy of the substances of the invention with regard to the reduction in damage to the summer wheat crop plant (TRZAS; cv. Triso) caused by the herbicide mesosulfuron-methyl: […]

[2] = tested on: summer barley (HORVS; cv. Montoya); test: Relative action (efficacy code): reduction of damage by mesosulfuron-methyl on summer barley; set-up: key: 0: no reduction in damage (appearance corresponding to the herbicide control); 1: slight reduction in damage; 2: distinct reduction in damage; 3: significant reduction in damage; 4: complete reduction in damage (appearance corresponding to the untreated control); conditions: then mesosulfuron-methyl 40-60 g/ha, visual, 9-13 days after application
Procedure: 2.4 Relative Action of Selected Compounds of the Invention Using the Example of Reduction of Damage by Mesosulfuron-Methyl on Summer Barley (HORVS) The seeds of the crop plants to be treated are laid out in sandy loam in plastic pots (diameter ˜4 cm), covered with soil and grown in a greenhouse under good conditions for germination and growth. The trial plants were treated at the early leaf stage (BBCH10—BBCH12). In the course of this, the inventive compounds of the general formula (I) formulated in the form of wettable powders (WP) were sprayed onto the above-ground parts of the plants as an aqueous suspension with a water application rate corresponding to 800 l/ha with addition of wetting agent (e.g. 0.2% Genapol-LRO or 0.2% Mero) in the specified dose. This was followed by the application of the herbicide. For this purpose, mesosulfuron-methyl, formulated in the form of water-dispersible granules (WG), was sprayed onto the above-ground parts of the plants in the form of an aqueous dispersion with a water application rate corresponding to 800 l/ha with addition of wetting agent (e.g. 0.2% Genapol-LRC) or 1 l/ha Biopower) in a dose of 40-60 g/ha. The dose of the herbicide was chosen here such that it causes visually apparent damage (min. 30%, max. 75%) compared to untreated crop plants at the evaluation time on a control group of crop plants without safener treatment that were included in the same trial. After application, the plants were cultivated under good growth conditions in a greenhouse. 9-13 days after application, the efficacy of the test compounds was assessed visually. For this purpose, the appearance of the plants treated with the test compound and herbicide was compared to the corresponding herbicide controls (without safener; with clearly visible damage) and the untreated controls (without damage). The damage-reducing effect of the test compounds was expressed here separately for 2 repeats in graded efficacy codes according to the following scheme: • 0: no reduction in damage (appearance corresponding to the herbicide control) • 1: slight reduction in damage • 2: distinct reduction in damage • 3: significant reduction in damage • 4: complete reduction in damage (appearance corresponding to the untreated control) The trials show clear efficacy of the substances of the invention with regard to the reduction in damage to the summer barley crop plant (HORVS; cv. Montoya) caused by the herbicide mesosulfuron-methyl: […]

[3] = tested on: summer wheat (TRZAS; cv. Triso); test: Absolute action: reduction of damage by mesosulfuron-methyl on summer wheat, greenhouse post-emergence; conditions: for Absolute reduction in herbicide damage (damage without safener minus damage with safener): mesosulfuron-methyl 20 g/ha; for Herbicide damage with compound of the formula (I): then mesosulfuron-methyl 20 g/ha, visual 0-100% scale, 14-21 days after application
Procedure: (§1) 2.1 Absolute Action of Selected Compounds of the Invention Using the Example of Reduction of Damage by Mesosulfuron-Methyl on Summer Wheat (TRZAS) The seeds of the crop plants to be treated are laid out in sandy loam in wood fiber or plastic pots (diameter ˜4 cm), covered with soil and grow in a greenhouse under good conditions for germination and growth. The trial plants were treated at the early leaf stage (BBCH10—BBCH12). In the course of this, the inventive compounds of the general formula (I) formulated in the form of wettable powders (WP) were sprayed onto the above-ground parts of the plants as an aqueous suspension with a water application rate corresponding to 800 l/ha with addition of wetting agent (e.g. 0.2% agrotin) in the specified dose. This was followed by the application of the herbicide. For this purpose, mesosulfuron-methyl, formulated in the form of water-dispersible granules (WG), was sprayed onto the above-ground parts of the plants in the form of an aqueous dispersion with a water application rate corresponding to 800 l/ha with addition of wetting agent (e.g. 0.2% agrotin) in a dose of 20 g/ha. The dose of the herbicide was chosen here such that it causes visually apparent damage (min. 30%, max. 75%) compared to untreated crop plants at the evaluation time on a control group of crop plants without safener treatment that were included in the same trial. After application, the plants were cultivated under good growth conditions in a greenhouse. The damage was visually assessed 14-21 days after application. The damage effect was assessed visually on a scale of 0-100% by comparison with untreated control plants, and averaged over 2-3 repeats per treatment. Examples: • 0%=no noticeable effect compared to the untreated plant • 20%=the treated plant population has 20% damage compared to the untreated control population (e.g. growth height, leaf damage, etc.) • 100%=treated plants completely damaged/killed.

[4] = tested on: summer barley (HORVS; cv. Montoya); test: Absolute action: reduction of damage by mesosulfuron-methyl on summer barley, greenhouse post-emergence; conditions: for Absolute reduction in damage (difference): mesosulfuron-methyl 20 g/ha, damage without minus with safener; for Herbicide damage with compound of the formula (I) (%): then mesosulfuron-methyl 20 g/ha, visual 0-100% scale, 14-21 days after application
Procedure: as §1, with “2.2 Absolute Action” for “2.1 Absolute Action”, “on Summer Barley (HORVS) The seeds” for “on Summer Wheat (TRZAS) The seeds”, “treated are aid out in” for “treated are laid out in”, “soil and grown in a” for “soil and grow in a”, “leaf stage (BBCE10-BBCH12). In the” for “leaf stage (BBCH10—BBCH12). In the”, “control population (e.g.: growth height,” for “control population (e.g. growth height,”

[5] = safener dose 500 (unit not given)
[6] = safener dose 100 (unit not given)

Row | SMILES | Efficacy of the safener (efficacy code) [1, 5] | Efficacy of the safener (efficacy code) ([2]; safener 500 g/ha) | Efficacy of the safener (efficacy code) [1, 6] | Efficacy of the safener (efficacy code) ([2]; safener 100 g/ha) | further results
1 | O=C(O)COc1nc(-c2ccc(Cl)cc2F)n(-c2c(F)cccc2F)n1 [I.48-43] | 2 | 2 | – | – | –
2 | COC(=O)COc1nc(-c2ccc(F)cc2F)n(-c2ccc(Cl)cc2F)n1 [I.40-49] | 4 | 4 | 4 | 4 | –
3 | COC(=O)COc1nc(-c2ccc(F)cc2F)n(-c2ccc(Cl)cc2)n1 [I.40-7, Methyl {[1-(4-chlorophenyl)-5-(2,4-difluorophenyl)-1H-1,2,4-triazol-3-yl]oxy}acetate] | 4 | 4 | 4 | 2 | –
4 | COCCOC(=O)COc1nc(-c2ccc(F)cc2F)n(-c2ccc(Cl)cc2F)n1 [I.67-49] | 2 | 2 | 2 | 2 | –
5 | O=C(O)COc1nc(-c2c(F)cccc2F)n(-c2c(F)cccc2F)n1 [I.57-43] | 2 | 2 | – | – | –
6 | COC(=O)COc1nc(-c2ccc(F)cc2F)n(-c2ccc(F)cc2Cl)n1 [I.40-48] | – | – | 2 | 2 | –
7 | O=C(O)COc1nc(-c2ccccc2)n(-c2c(F)cccc2F)n1 [I.3-43] | 2 | 2 | 2 | 2 | –
8 | O=C(COc1nc(-c2ccc(F)cc2F)n(-c2ccc(Cl)cc2F)n1)OCC1CCOC1 (stereo not drawn) [I.63-49] | – | – | 2 | 2 | –
9 | O=C(O)COc1nc(-c2c(F)cccc2F)n(-c2ccc(Cl)cc2F)n1 [I.57-49] | – | 2 | – | 2 | –
10 | O=C(O)COc1nc(-c2ccc(F)cc2F)n(-c2ccc(Cl)cc2)n1 [I.42-7, {[1-(4-Chlorophenyl)-5-(2,4-difluorophenyl)-1H-1,2,4-triazol-3-yl]oxy}acetic acid] | – | – | – | – | Absolute reduction in herbicide damage (damage without safener minus damage with safener) ([3]; safener 250 g/ha): 43%; Herbicide damage with compound of the formula (I) ([3]; safener 250 g/ha): 0%; Absolute reduction in damage (difference) ([4]; safener 250 g a.i./ha): 60%; Herbicide damage with compound of the formula (I) (%) ([4]; safener 250 g a.i./ha): 0%
11 | O=C(O)COc1nc(-c2ccccc2F)n(-c2ccc(Cl)cc2F)n1 [I.6-49] | – | – | – | – | Absolute reduction in herbicide damage (damage without safener minus damage with safener) ([3]; safener 250 g/ha): 30%; Herbicide damage with compound of the formula (I) ([3]; safener 250 g/ha): 27%; Absolute reduction in damage (difference) ([4]; safener 250 g a.i./ha): 20%; Herbicide damage with compound of the formula (I) (%) ([4]; safener 250 g a.i./ha): 40%; Absolute reduction in damage (difference) ([4]; safener 1000 g a.i./ha): 30%; Herbicide damage with compound of the formula (I) (%) ([4]; safener 1000 g a.i./ha): 30%
12 | COC(=O)COc1nc(-c2ccc(Cl)cc2Cl)n(-c2ccc(F)cc2F)n1 [I.43-38] | – | – | – | – | Absolute reduction in herbicide damage (damage without safener minus damage with safener) ([3]; safener 125 g a.i./ha): 30%; Herbicide damage with compound of the formula (I) ([3]; safener 125 g a.i./ha): 33%; Absolute reduction in herbicide damage (damage without safener minus damage with safener) ([3]; safener 500 g a.i./ha): 33%; Herbicide damage with compound of the formula (I) ([3]; safener 500 g a.i./ha): 30%; Absolute reduction in damage (difference) ([4]; safener 125 g a.i./ha): 26%; Herbicide damage with compound of the formula (I) (%) ([4]; safener 125 g a.i./ha): 37%
13 | CCOC(=O)COc1nc(-c2ccc(Cl)cc2F)n(-c2ccc(Cl)cc2Cl)n1 [I.47-32] | – | – | – | – | Absolute reduction in herbicide damage (damage without safener minus damage with safener) ([3]; safener 125 g a.i./ha): 34%; Herbicide damage with compound of the formula (I) ([3]; safener 125 g a.i./ha): 23%; Absolute reduction in herbicide damage (damage without safener minus damage with safener) ([3]; safener 500 g a.i./ha): 44%; Herbicide damage with compound of the formula (I) ([3]; safener 500 g a.i./ha): 13%; Absolute reduction in damage (difference) ([4]; safener 500 g a.i./ha): 47%; Herbicide damage with compound of the formula (I) (%) ([4]; safener 500 g a.i./ha): 10%
